Reference: patent US20230090391A1, “OMECAMTIV MECARBIL TABLET” (Amgen Inc., priority 2020, published 2023)
Counter-ions that a name gives are not always drawn.

Assays:
[1] = 19F solid state NMR of granulation and IR mini-tablet cores (physical form); assay type: physicochemical; details: 19F SSNMR of IR granulation and IR mini-tablet cores
From the text: Cores 1A-1C, as well as the corresponding granulates, were subjected to analytical characterizations. The results are depicted in FIGS. 3 and 4.
FIGS. 3 and 4 depict the ^19F solid state NMR (SSNMR) spectra of the immediate-release granulation and immediate-release mini-tablet cores.

[2] = Phase 1 crossover study: safety and tolerability of single oral doses of OM; assay type: in vivo, healthy adult subjects; details: all 5 treatments
Procedure: The secondary objective of the study was to evaluate the safety and tolerability of a single 6 mg dose (administered as mini-tablets) or 25 mg dose (administered as a MR tablet or mini-tablets) of OM administered to healthy adult subjects.
The study was a Phase 1, single-center, open-label, randomized, 5-period, 4-sequence crossover study to investigate the pharmacokinetics, safety, and tolerability of the disclosed tablet formulations and a conventional MR tablet formulation of OM in healthy male and healthy female adult subjects. Subjects were screened to assess eligibility to enter the study within 21 days prior to the first dose administration. Subjects were admitted into the clinical research unit on Day 1 and confined to the clinical research unit for Periods 1 through 5 until discharged at end of study. Following randomization into 1 of 4 treatment sequences, subjects received 1 of the 5 treatments on Day 1 of each treatment period with all subjects receiving all 5 treatments. Blood was collected at predetermined timepoints to characterize plasma concentrations of OM. Safety and tolerability monitoring was performed throughout the study.
Up to twenty subjects (5 per sequence) were enrolled in the study. Data for all 20 subjects entered into the study were included in the PK and safety analyses. Healthy male or female subjects were selected according to inclusion and exclusion criteria. The subjects were assigned to one of the five following Treatment Groups (A-E): • Treatment Group A: 25 mg (1×25 mg) OM MR tablet; • Treatment Group B: 25 mg (25×1 mg) OM slow-release mini-tablets; • Treatment Group C: 25 mg (25×1 mg) OM fast-release mini-tablets; • Treatment Group D: 6 mg (6×1 mg) OM slow-release mini-tablets; and • Treatment Group E: 6 mg (6×1 mg) OM fast-release mini-tablets.
The safety analysis included monitoring adverse events, clinical laboratory evaluations, 12 lead electrocardiograms (ECGs), and vital signs during the study.
All safety data were listed. The treatment-emergent adverse events were summarized by treatment, severity, and relationship to the study drug. The frequency of treatment emergent adverse events was summarized by treatment, system organ class and preferred term of the Medical Dictionary for Regulatory Activities. No inferential statistical analyses were planned.

Structure (SMILES)	Stability and physical form during manufacturing [1]	Clinical laboratory evaluations, vital signs, 12-lead ECGs ([2]; 20 subjects)	Number of subjects reporting treatment-emergent adverse events considered related to OM ([2]; 20 subjects) [subjects]	Serious adverse events ([2]; 20 subjects)	Treatment-emergent adverse events leading to discontinuation ([2]; 20 subjects)	Severity of adverse events ([2]; 20 subjects, resolved by the end of the study)	Number of treatment-emergent adverse events considered related to OM ([2]; myalgia, dizziness, costochondritis, muscle twitching, non-cardiac chest pain)
COC(=O)N1CCN(Cc2cccc(NC(=O)Nc3ccc(C)nc3)c2F)CC1 [omecamtiv mecarbil dihydrochloride monohydrate]	stable during manufacturing and exhibits no change in physical form						
COC(=O)N1CCN(Cc2cccc(NC(=O)Nc3ccc(C)nc3)c2F)CC1 [OM, Omecamtiv mecarbil]		no clinically significant findings	7	no serious adverse events	no treatment-emergent adverse events led to premature discontinuation	mild	Eight
